pEC50, pIC50: −log10 of the molar value. Like-named read-outs stand apart in the source and are kept apart here.
Columns and labels:
[1] = target: T1, recombinant human ERK5 catalytic domain (Homo sapiens, UniProt Q13164); assay: Recombinant human ERK5 radiometric (HotSpot) assay; type: biochemical
T1 construct: Recombinant human ERK5 catalytic domain radiometric assays; purchased Reaction Biology, Corp (Malvern, Pa.), which ran the assay as a service
Procedure: In this example, potency of the compounds in recombinant human ERK5 was assayed.
Recombinant human ERK5 catalytic domain radiometric assays were performed by Reaction Biology, Corp (Malvern, Pa.). The HotSpot radiometric assay is based on conventional filter-binding assays (Nature Biotechnology (2011) 29: 1039-1045). Compounds were tested at 20 μM down by ⅓ in a 10 point serial dilution series. Briefly, [γ-33P]-ATP was used as the tracer along with 10 μM cold ATP to label ERK5 in the presence of 20 μM myelin basic protein substrate.

[2] = test system: human PBMCs; assay: Human PBMC TNF-α response to endotoxin (ELISA); type: cell-based; settings: 0.1 μg/ml LPS 16 h, read-out: EC50 for the inhibition of the human PBMC TNF-α response to endotoxin, ave. ± S.D.
How it was run: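 PBMCs at 2e6 cells/ml in RPMI 1640 with 10% charcoal-dextran-treated FBS were pre-treated 1 h at 37 °C with compound (4-point 1:5 dilution from 10 μM). Stimulation with 0.1 μg/ml E. coli 0111:B4 LPS for 16 h; TNF-α measured by ELISA (A450) in 25-fold diluted supernatant.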

[3] = 10 μM ATP, 20 μM myelin basic protein substrate, read-out: rhERK5 IC50

T1 sequence (Q13164 55-347 limits assumed): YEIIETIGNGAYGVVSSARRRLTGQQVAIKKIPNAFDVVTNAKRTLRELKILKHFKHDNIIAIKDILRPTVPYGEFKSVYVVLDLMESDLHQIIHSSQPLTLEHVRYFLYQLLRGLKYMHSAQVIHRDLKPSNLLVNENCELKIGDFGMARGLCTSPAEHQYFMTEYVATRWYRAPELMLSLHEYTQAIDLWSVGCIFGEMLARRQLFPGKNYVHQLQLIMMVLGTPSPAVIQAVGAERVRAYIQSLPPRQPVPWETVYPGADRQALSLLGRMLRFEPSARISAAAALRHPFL

Row | SMILES | pIC50 [1, 3] | pEC50 [2] | pIC50 [1]
1 | CCOc1cc(C(=O)N2CCC(N3CCN[C@H](C)C3)CC2)ccc1Nc1cc2c(cn1)N(C)C(=O)c1ccccc1N2C [Compound T51] | 7.30 to 7.70 | 6.13 | 
2 | CCOc1cc(C(=O)N2CCN(CCC#N)CC2)ccc1Nc1cc2c(cn1)N(C)C(=O)c1ccccc1N2C [Compound T17] | 7.30 to 7.70 | 6.05 | 
3 | CCCOc1cc(C(=O)N2CCCNCC2)ccc1Nc1cc2c(cn1)N(C)C(=O)c1ccccc1N2C [Compound T40] | 7.30 to 7.70 | 6.31 | 
4 | CCOc1cc(C(=O)N2CCC[C@H](C#N)C2)ccc1Nc1cc2c(cn1)N(C)C(=O)c1ccccc1N2C [Compound T24] | < 6.70 | 5.49 | 
5 | CCOc1cc(C(=O)N2CCC(=O)CC2)ccc1Nc1cc2c(cn1)N(C)C(=O)c1ccccc1N2C [Compound T28] |  | 6.32 | > 7.70
6 | CCOc1cc(C(=O)N2CCN(C(=O)CN)CC2)ccc1Nc1cc2c(cn1)N(C)C(=O)c1ccccc1N2C [Compound T30] | > 7.70 | 6.11 | 
7 | CCCOc1cc(C(=O)N2CCC[C@H](O)C2)ccc1Nc1cc2c(cn1)N(C)C(=O)c1ccccc1N2C [Compound T39] | < 6.70 | 6.04 | 
8 | CCOc1cc(C(=O)N2CCC[C@@H](C#N)C2)ccc1Nc1cc2c(cn1)N(C)C(=O)c1ccccc1N2C [Compound T23] | < 6.70 | 5.62 | 
9 | CCOc1cc(C(=O)N2CCC[C@H](OP(=O)(O)O)C2)ccc1Nc1cc2c(cn1)N(C)C(=O)c1ccccc1N2C [Compound T43] | 7.30 to 7.70 | < 5.00 | 
